Measurements taken from patent US20100298141A1, “SUBSTITUTED PYRIDINE N-OXIDE HERBICIDES” (E. I. DU PONT DE NEMOURS AND COMPANY, priority 2007, published 2010).

Experiments:
[1] = test system: velvetleaf; test: Test A pre-/postemergence greenhouse test; format: in vivo, Abutilon theophrasti; settings: for Plant response rating, Velvetleaf: 0 to 100 scale where 0 is no effect and 100 is complete control; for Velvetleaf plant response rating: 0 to 100 scale
In short: (§1)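 Seeds sown in a loam soil–sand blend got a preemergence directed soil spray of compound in a non-phytotoxic solvent mixture containing surfactant. Postemergence sprays of the same formulation went at the same time onto plants 2–10 cm tall at the one- to two-leaf stage. Injury was scored visually against untreated controls after about ten days in the greenhouse.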

[2] = test system: Surinam grass; test: Test C pre-/postemergence test; format: in vivo, Brachiaria decumbens; settings: for Plant response rating (0 to 100), Surinam Grass: Postemergence
In short: (§2)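 Test chemicals were formulated with surfactant in a non-phytotoxic solvent and sprayed both on freshly planted seeds (preemergence) and on 1- to 4-leaf plants of 2–18 cm (postemergence). Flooded-paddy pots received compound directly into 3 cm of standing water, maintained for the test.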

[3] = test system: barnyardgrass; test: Test C flooded paddy test; format: in vivo, Echinochloa crus-galli; settings: Flood
In short: (§3)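 Compound was added to standing water 3 cm above soil, flood maintained, and plants held in a greenhouse before visual scoring against controls at 13 to 15 days.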

[4] = test system: bermudagrass; test: Test C pre-/postemergence test; format: in vivo, Cynodon dactylon
In short: as §2

[5] = test system: eastern black nightshade; test: Test C pre-/postemergence test; format: in vivo, Solanum ptycanthum
In short: as §2

[6] = test system: redroot pigweed; test: Test A pre-/postemergence greenhouse test; format: in vivo, Amaranthus retroflexus; settings: for Plant response rating, Pigweed: 0 to 100 scale where 0 is no effect and 100 is complete control; for Pigweed plant response rating: 0 to 100 scale
In short: as §1

[7] = test system: giant foxtail; test: Test C pre-/postemergence test; format: in vivo, Setaria faberii
In short: as §2

[8] = test system: giant foxtail; test: Test A pre-/postemergence greenhouse test; format: in vivo, Setaria faberi; settings: for Plant response rating, Foxtail, Giant: 0 to 100 scale where 0 is no effect and 100 is complete control; for Foxtail, Giant plant response rating: 0 to 100 scale
In short: as §1

[9] = test system: johnsongrass; test: Test C pre-/postemergence test; format: in vivo, Sorghum halepense
In short: as §2

[10] = test system: corn; test: Test A pre-/postemergence greenhouse test; format: in vivo, Zea mays; settings: for Plant response rating, Corn: 0 to 100 scale where 0 is no effect and 100 is complete control; for Corn plant response rating: 0 to 100 scale
In short: as §1

[11] = test system: velvetleaf; test: Test C pre-/postemergence test; format: in vivo, Abutilon theophrasti
In short: as §2

[12] = test system: rice; test: Test C flooded paddy test; format: in vivo, Oryza sativa; settings: Flood
In short: as §3

[13] = test system: wheat; test: Test A pre-/postemergence greenhouse test; format: in vivo, Triticum aestivum; settings: for Plant response rating, Wheat: 0 to 100 scale where 0 is no effect and 100 is complete control; for Wheat plant response rating: 0 to 100 scale
In short: as §1

[14] = test system: wild oat; test: Test C pre-/postemergence test; format: in vivo, Avena fatua
In short: as §2

[15] = test system: duck salad; test: Test C flooded paddy test; format: in vivo, Heteranthera limosa; settings: Flood
In short: as §3

[16] = test system: lambsquarters; test: Test C pre-/postemergence test; format: in vivo, Chenopodium album; settings: for Lambsquarters plant response rating: preemergence, scale 0 (no effect) to 100 (complete control)
In short: as §2

[17] = test system: Goosegrass; test: Test C pre-/postemergence test; format: in vivo, Eleusin indica
In short: as §2

[18] = test system: common ragweed; test: Test C pre-/postemergence test; format: in vivo, Ambrosia elation; settings: for Plant response rating (0 to 100), Ragweed / Plant response rating, Ragweed: Postemergence; for Plant response rating, Ragweed: scale 0 to 100, 0 no effect, 100 complete control
In short: as §2

[19] = Postemergence, 500 g ai/ha, 0 is no effect, 100 is complete control
[20] = Preemergence, 125 g ai/ha, 0 no effect, 100 complete control
[21] = 62 g ai/ha, Preemergence, scale 0 to 100
[22] = 125 g ai/ha, preemergence, scale 0 (no effect) to 100 (complete control)
[23] = Preemergence, 31 g ai/ha, scale 0 to 100 (0 no effect, 100 complete control)
[24] = preemergence, 250 g ai/ha, scale 0 (no effect) to 100 (complete control)
[25] = 62 g ai/ha, scale 0 to 100 (0 no effect, 100 complete control)
[26] = 250 g ai/ha, scale 0 to 100, 0 no effect, 100 complete control, 13 to 15 days
[27] = Postemergence, 125 g ai/ha, scale 0 to 100, 0 no effect, 100 complete control
[28] = Postemergence, 250 g ai/ha, scale 0 to 100, 0 no effect, 100 complete control

CC(Oc1c(CS(=O)(=O)c2cccc[n+]2[O-])c(C(F)(F)F)nn1C)C(F)(F)F (stereo not drawn) [Compound 82]
Plant response rating, Velvetleaf ([1]; Postemergence, 125 g ai/ha): 10 | Velvetleaf plant response rating [1, 19]: 80 | Velvetleaf plant response rating [1, 20]: 60 | Plant response rating, Velvetleaf ([1]; Preemergence, 500 g ai/ha): 100 | Surinam Grass plant response rating [2, 21]: 80 | Surinam Grass plant response rating [2, 22]: 90 | Plant response rating (0 to 100), Surinam Grass ([2]; 31 g ai/ha): 0 | Plant response rating (0 to 100), Surinam Grass ([2]; 62 g ai/ha): 0 | Plant response rating, Surinam Grass [2, 23]: 70 | Surinam Grass plant response rating [2, 24]: 90 | Plant response rating, Barnyardgrass [3, 25]: 0 | Plant response rating, Barnyardgrass [3, 26]: 80 | Bermudagrass plant response rating ([4]; 62 g ai/ha, Preemergence, scale 0 to 100 (0 no effect, 100 complete control)): 100 | Bermudagrass plant response rating [4, 22]: 100 | Plant response rating (0 to 100), Bermudagrass ([4]; Postemergence, 31 g ai/ha): 0 | Plant response rating (0 to 100), Bermudagrass ([4]; Postemergence, 62 g ai/ha): 0 | Plant response rating, Bermudagrass [4, 27]: 0 | Plant response rating, Bermudagrass [4, 28]: 0 | Plant response rating, Bermudagrass [4, 23]: 100 | Bermudagrass plant response rating [4, 24]: 100 | Nightshade plant response rating [5, 21]: 40 | Nightshade plant response rating [5, 22]: 80 | Plant response rating, Nightshade [5, 23]: 0 | Nightshade plant response rating [5, 24]: 100 | Plant response rating, Pigweed ([6]; Postemergence, 125 g ai/ha): 30 | Pigweed plant response rating [6, 19]: 70 | Pigweed plant response rating [6, 20]: 40 | Plant response rating, Pigweed ([6]; Preemergence, 500 g ai/ha): 100 | Foxtail, Giant plant response rating [7, 21]: 85 | Foxtail, Giant plant response rating [7, 22]: 100 | Plant response rating (0 to 100), Foxtail, Giant ([7]; Postemergence, 31 g ai/ha): 0 | Plant response rating (0 to 100), Foxtail, Giant ([7]; Postemergence, 62 g ai/ha): 0 | Plant response rating, Foxtail, Giant [7, 27]: 40 | Plant response rating, Foxtail, Giant [7, 28]: 40 | Plant response rating, Foxtail, Giant [7, 23]: 70 | Foxtail, Giant plant response rating [7, 24]: 100 | Plant response rating, Foxtail, Giant ([8]; Postemergence, 125 g ai/ha): 90 | Foxtail, Giant plant response rating [8, 19]: 90 | Foxtail, Giant plant response rating [8, 20]: 100 | Plant response rating, Foxtail, Giant ([8]; Preemergence, 500 g ai/ha): 100 | Johnsongrass plant response rating [9, 21]: 80 | Johnsongrass plant response rating [9, 22]: 80 | Plant response rating (0 to 100), Johnsongrass ([9]; Postemergence, 31 g ai/ha): 0 | Plant response rating (0 to 100), Johnsongrass ([9]; Postemergence, 62 g ai/ha): 0 | Plant response rating, Johnsongrass [9, 27]: 10 | Plant response rating, Johnsongrass [9, 28]: 40 | Plant response rating, Johnsongrass [9, 23]: 40 | Johnsongrass plant response rating [9, 24]: 100 | Plant response rating, Corn ([10]; Postemergence, 125 g ai/ha): 0 | Corn plant response rating [10, 19]: 20 | Corn plant response rating [10, 20]: 0 | Plant response rating, Corn ([10]; Preemergence, 500 g ai/ha): 50 | Velvetleaf plant response rating [11, 21]: 80 | Velvetleaf plant response rating [11, 22]: 80 | Plant response rating (0 to 100), Velvetleaf ([11]; Postemergence, 31 g ai/ha): 0 | Plant response rating (0 to 100), Velvetleaf ([11]; Postemergence, 62 g ai/ha): 0 | Plant response rating, Velvetleaf [11, 27]: 0 | Plant response rating, Velvetleaf [11, 28]: 20 | Plant response rating, Velvetleaf [11, 23]: 0 | Velvetleaf plant response rating [11, 24]: 100 | Plant response rating, Rice [12, 25]: 0 | Plant response rating, Rice [12, 26]: 60 | Plant response rating, Wheat ([13]; Postemergence, 125 g ai/ha): 30 | Wheat plant response rating [13, 19]: 60 | Wheat plant response rating [13, 20]: 30 | Plant response rating, Wheat ([13]; Preemergence, 500 g ai/ha): 70 | Oat, Wild plant response rating [14, 21]: 60 | Oat, Wild plant response rating [14, 22]: 80 | Plant response rating (0 to 100), Oat, Wild ([14]; Postemergence, 31 g ai/ha): 0 | Plant response rating (0 to 100), Oat, Wild ([14]; Postemergence, 62 g ai/ha): 0 | Plant response rating, Oat, Wild [14, 27]: 0 | Plant response rating, Oat, Wild [14, 28]: 40 | Plant response rating, Oat, Wild [14, 23]: 35 | Oat, Wild plant response rating [14, 24]: 80 | Plant response rating, Ducksalad [15, 25]: 60 | Plant response rating, Ducksalad [15, 26]: 80 | Lambsquarters plant response rating ([16]; 125 g ai/ha): 0 | Plant response rating (0 to 100), Lambsquarters ([16]; Postemergence, 31 g ai/ha): 0 | Plant response rating (0 to 100), Lambsquarters ([16]; Postemergence, 62 g ai/ha): 0 | Plant response rating, Lambsquarters [16, 28]: 0 | Lambsquarters plant response rating ([16]; 250 g ai/ha): 100 | Goosegrass plant response rating [17, 21]: 100 | Goosegrass plant response rating [17, 22]: 100 | Plant response rating (0 to 100), Goosegrass ([17]; Postemergence, 31 g ai/ha): 0 | Plant response rating (0 to 100), Goosegrass ([17]; Postemergence, 62 g ai/ha): 0 | Plant response rating, Goosegrass [17, 27]: 10 | Plant response rating, Goosegrass [17, 28]: 40 | Plant response rating, Goosegrass [17, 23]: 90 | Goosegrass plant response rating [17, 24]: 100 | Ragweed plant response rating [18, 21]: 0 | Ragweed plant response rating [18, 22]: 100 | Plant response rating (0 to 100), Ragweed ([18]; 31 g ai/ha): 0 | Plant response rating (0 to 100), Ragweed ([18]; 62 g ai/ha): 30 | Plant response rating, Ragweed ([18]; 125 g ai/ha): 35 | Plant response rating, Ragweed ([18]; 250 g ai/ha): 50 | Ragweed plant response rating [18, 24]: 100
